From patent US20090029366A1 (priority 2007, published 2009)

Target: T1, HCN3 channel (Homo sapiens, UniProt Q9P1Z3)
T1 construct: expressed in transfected cells; host or cells: HEK-293H
T1 sequence (Q9P1Z3 1-774): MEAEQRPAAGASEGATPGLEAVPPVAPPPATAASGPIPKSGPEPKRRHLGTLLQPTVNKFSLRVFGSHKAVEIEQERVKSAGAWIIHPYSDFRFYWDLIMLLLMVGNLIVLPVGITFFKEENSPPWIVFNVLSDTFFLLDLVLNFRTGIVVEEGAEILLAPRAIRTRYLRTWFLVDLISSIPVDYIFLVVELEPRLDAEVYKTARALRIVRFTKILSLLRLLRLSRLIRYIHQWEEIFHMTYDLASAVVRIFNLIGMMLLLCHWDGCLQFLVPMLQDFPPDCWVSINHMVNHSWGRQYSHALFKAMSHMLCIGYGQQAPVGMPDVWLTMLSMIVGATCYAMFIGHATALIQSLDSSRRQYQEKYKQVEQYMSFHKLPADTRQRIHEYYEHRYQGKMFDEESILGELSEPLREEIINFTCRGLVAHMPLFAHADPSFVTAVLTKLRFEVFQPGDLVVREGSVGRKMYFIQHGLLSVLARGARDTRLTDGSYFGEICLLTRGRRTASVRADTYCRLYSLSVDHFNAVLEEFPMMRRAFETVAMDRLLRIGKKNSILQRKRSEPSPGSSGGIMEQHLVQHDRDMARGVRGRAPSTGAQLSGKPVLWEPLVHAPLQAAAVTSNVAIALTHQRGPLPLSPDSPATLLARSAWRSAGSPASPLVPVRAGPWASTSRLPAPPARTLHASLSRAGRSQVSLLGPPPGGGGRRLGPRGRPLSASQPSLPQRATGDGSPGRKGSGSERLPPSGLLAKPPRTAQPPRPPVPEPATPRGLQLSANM
Assay: MPSD FLIPR/FLEX 96 well hyperpolarization assay, HCN3
Type: cell-based
Conditions: HCN3 channel expressing HEK-293H cells, ZD7288 30 μM (FIG. 7A)
Experimental: The above-described assay was modified for use with the FLIPR®^96 or FLEX^96 96 well plate format. In brief, cells stably expressing HCN channels were plated at 40-80×10^3 cells/plate in 100-150 μl/well of DMEM supplemented with 10% fetal bovine serum, 1× NEAA, and 1× penicillin/streptomycin. Cells were cultured for 24-48 hours in a 5% CO2/air humidifiedincubator at 37° C. Cells were incubated in 30 μl/well of HBSS containing MPSD, as described above, for 15-45 minutes at room temperature.
Membrane potentials were measured at room temperature (21°-23°) using a FLIPR® system or a FLEXSTATION® (Molecular Devices of Sunnydale, Calif.). Control cells were incubated in HBSS/MPSD without a test agent. For identification of HCN channel modulators, cells were incubated in HBSS/MPSD and the presence of a test agent as described in Examples 5 and 6 herein below. […]
Cells were incubated in 30 μl HBSS supplemented with MPSD with or without 50 μM of the channel inhibitor ZD7288, dissolved in <1.0% dimethyl sulfoxide (DMSO) added to the HBSS solution. […] The change in fluorescence (ΔF) was measured for a total assay time of about 100 seconds. […]
FIG. 6A depicts the whole-plate screenshot of the changes in fluorescence/membrane potential over time. FIG. 7A depicts the change in fluorescence (F) over time for control cells (upper trace) and for cells exposed to ZD7288 at a concentration of 30 μM (lower trace). […]

**Q.** `CCN(c1ccccc1)c1cc(=NC)n(C)c(C)n1.Cl` [ZD7288] was tested. Which “blockade of hyperpolarization (change in fluorescence)” value did it give?
**A.** The value was “effectively blocked hyperpolarization”.
